Experimental data taken from patent publication US20220373535A1, “METHODS OF IDENTIFICATION OF SYNERGISTIC ANTI-CANCER MULTIDRUG COMBINATIONS AND USES THEREOF” (UNIVERSITE DE GENEVE, priority 2019, published 2022).

Experiments:
786-O cells [1] = assay: in vitro cell viability bioassay measuring cell metabolic activity (CellTiterGlo); format: cell-based, human; details: for IC20: ED20 (or lower, based on clinically attainable plasma concentrations), highest dose for combinatorial screening; for EC50: 786-0, dose that inhibited 50% of cell viability vs control, 72 h treatment, read-out: ED50 (the source's name)
Procedure: Seeding density was 2-10×10^3cells/well, depending on the cell line's growth characteristics such that the control cells approach confluency at the time of the assay readout. Subsequently, cell viability was assessed using the CellTiterGlo® luminescence assay (Promega, Madison, Wis., USA) and cell viability was reported as the luminescence signal in the treated wells normalized to the signal in the DMSO treated control wells. Dose-response curves and IC50 values were determined in Graphpad Prism® using a four-parameter non-linear fit of the log transformed dose data of each compound.

786-O cells [2] = assay: mitosis live cell imaging (SiR-tubulin); format: cell-based, human; details: single drug alone
Procedure: In order to test whether C2 treatment affects cell division, this process was monitored by live cell imaging. 786-O cells were treated with 0.1% DMSO in the cell culture medium (CTRL) or C2 and stained with the live cell dye SiR-tubulin (microtubule marker) to label the mitotic spindle, monitor mitotic progression and detect any cytokinesis failure. All experiments were performed in the presence of Valspodar (4 μM), a multi-drug pump inhibitor that prevented SiR-tubulin removal from the cell (this concentration of Valspodar had no effect on the efficacy of C2). Live cells were recorded for 24 hours at a temporal resolution of 3 minutes (FIG. 7A).
20 points were taken per condition.

COLO-205 cells = assay: cell metabolic activity assay (CellTitre-Glo), CRC line; format: cell-based; details: COLO-205, CIN and high centrosome numbers
Procedure: C2 and the individual drugs present in C2 were assayed in a cell metabolic activity assay (CellTitre-Glo) where the bioluminescence was detected, to the following cell panel: two MIN (microsatellite instability) cell lines (HCT-116 and DLD1), two CIN (chromosomal instability) cell lines (SW480 and SW620), COLO205 (CIN and high centrosome numbers), HT29 (CIN and replication stress induced centriole dis-engagement), CCD841 (non-malignant colon cell line; negative control) and 786-O (renal carcinoma cell line; positive control).

SMILES	IC20 (786-O cells [1]; Homo sapiens, 786-0, 72 h) [nM]	EC50 (786-O cells [1]; Homo sapiens) [nM]	effect on mitosis duration (786-O cells [2])	killing / toxicity (cell metabolic activity) (COLO-205 cells)	IC20 (786-O cells [1]) [nM]
CNC(=O)c1cc(Oc2ccc(NC(=O)Nc3ccc(Cl)c(C(F)(F)F)c3)cc2)ccn1 [sorafenib]	10				
Cc1[nH]c2ccccc2c1CCNCc1ccc(/C=C/C(=O)NO)cc1 [LBH-589]	2	10			
CC(=O)Nc1ccc(C(=O)Nc2ccccc2N)cc1 [CI-994, 4-(Acetylamino)-N-(2-aminophenyl)benzamide]	1000	11500			
Cc1nc(Nc2ncc(C(=O)Nc3c(C)cccc3Cl)s2)cc(N2CCN(CCO)CC2)n1 [dasatinib, N-(2-chloro-6-methylphenyl)-2-[[6-[4-(2-hydroxyethyl)piperazin-1-yl]-2-methylpyrimidin-4-yl]amino]-1,3-thiazole-5-carboxamide]	50	100			
Cc1cc(Nc2cc(N3CCN(C)CC3)nc(Sc3ccc(NC(=O)C4CC4)cc3)n2)[nH]n1 [VX-680]	650	33000			
CNC(=O)c1ccccc1Sc1ccc2c(/C=C/c3ccccn3)n[nH]c2c1 [axitinib]	200				
C#Cc1cccc(Nc2ncnc3cc(OCCOC)c(OCCOC)cc23)c1 [erlotinib, N-(3-Ethynylphenyl)-6,7-bis(2-methoxyethoxy) quinazolin-4-amine]	2000	6600	small delay in mitosis		
O=C(CCCCCCC(=O)Nc1ccc([C@H]2O[C@@H](CSc3nc(-c4ccccc4)c(-c4ccccc4)o3)C[C@@H](c3ccc(CO)cc3)O2)cc1)NO [tubacin, N-(4-{(2R,4R,6S)-4-{[(4,5-diphenyl-1,3-oxazol-2-yl)sulfanyl]methyl}is [4-(hydroxymethyl)phenyl]-1,3-dioxan-2-yl}phenyl)-N′-hydroxyoctanediamide]	2000	6000	small delay in mitosis	partial toxicity	
O=C(CCCCCCC(=O)Nc1ccccc1)NO [SAHA]					1000
Cn1c(=O)n(-c2ccc(C(C)(C)C#N)cc2)c2c3cc(-c4cnc5ccccc5c4)ccc3ncc21 [BEZ-235]	20	90			
